According to ChEMBL document CHEMBL3217519, “A self-immolative dendritic glucuronide prodrug of doxorubicin” (Medchemcomm, 2012):
Active and inactive are the calls of the source. No cut-off for these calls is given here.

Tests used:
Serum = assay: Stability of the compound in bovine serum assessed as drug degradation at 37 degC measured for 24 hrs; assay type: ADME, Bos taurus; conditions: cattle
NCI-H661 [1] = assay: Antiproliferative activity against human NCI-H661 cells assessed as inhibition of cell viability at 1000 nM after 3 days by XTT assay; assay type: functional, cell-based
Beta-glucuronidase = Beta-glucuronidase (Escherichia coli (strain K12), UniProt P05804); assay: Prodrug activation in phosphate buffer assessed as Escherichia coli beta-glucuronidase-catalysed release of doxorubicin at 0.06 umol at pH 7 after 6 hrs by HPLC analysis; conditions: isolated protein, pH 7, 6 h
NCI-H661 [2] = assay: Ratio of HMR1826 IC50 to compound IC50 for human NCI-H661 cells in presence of beta-glucuronidase; assay type: functional
NCI-H661 [3] = assay: Antiproliferative activity against human NCI-H661 cells assessed as inhibition of cell viability after 3 days by XTT assay in presence of beta-glucuronidase; assay type: functional, cell-based; conditions: NCI-H661, 72 h
[4] = Stability of the compound in 0.02M phosphate buffer assessed as drug decomposition at 0.06 umol at pH 7 after 10 days by HPLC analysis; assay type: physicochemical; conditions: pH 7, 240 h

Beta-glucuronidase, sequence (P05804 whole entry): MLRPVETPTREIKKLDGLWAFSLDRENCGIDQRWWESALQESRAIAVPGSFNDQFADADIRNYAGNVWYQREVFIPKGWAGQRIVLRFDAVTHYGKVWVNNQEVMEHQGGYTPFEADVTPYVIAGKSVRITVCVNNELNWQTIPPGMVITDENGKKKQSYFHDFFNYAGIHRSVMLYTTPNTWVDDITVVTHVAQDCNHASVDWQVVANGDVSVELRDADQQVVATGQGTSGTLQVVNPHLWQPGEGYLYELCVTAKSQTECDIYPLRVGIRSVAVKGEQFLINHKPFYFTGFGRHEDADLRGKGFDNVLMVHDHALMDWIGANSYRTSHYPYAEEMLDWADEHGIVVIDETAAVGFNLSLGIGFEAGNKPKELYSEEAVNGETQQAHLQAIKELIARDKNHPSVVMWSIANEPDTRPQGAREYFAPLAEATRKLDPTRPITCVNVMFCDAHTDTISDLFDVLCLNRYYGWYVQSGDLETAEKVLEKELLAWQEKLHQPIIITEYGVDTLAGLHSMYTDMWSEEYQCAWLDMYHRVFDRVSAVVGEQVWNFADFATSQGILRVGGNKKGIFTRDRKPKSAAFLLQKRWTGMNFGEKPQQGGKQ

Stability (Serum) | Drug metabolism (Beta-glucuronidase) | IC50 (NCI-H661 [3]) [nM] | Stability [4] | SMILES | inhibition (NCI-H661 [1]) | Ratio IC50 (NCI-H661 [2])
Stable | Active | 110 | Stable | COc1cccc2c1C(=O)c1c(O)c3c(c(O)c1C2=O)C[C@@](O)(C(=O)CO)C[C@@H]3O[C@H]1C[C@H](NC(=O)OCc2ccc(NC(=O)OCc3ccc(O[C@@H]4O[C@H](C(=O)O)[C@@H](O)[C@H](O)[C@H]4O)c([N+](=O)[O-])c3)c(COC(=O)N[C@H]3C[C@H](O[C@H]4C[C@](O)(C(=O)CO)Cc5c(O)c6c(c(O)c54)C(=O)c4c(OC)cccc4C6=O)O[C@@H](C)[C@H]3O)c2)[C@H](O)[C@H](C)O1 | inactive | 2
 |  | 250 |  | COc1cccc2c1C(=O)c1c(O)c3c(c(O)c1C2=O)C[C@@](O)(C(=O)CO)C[C@@H]3O[C@H]1C[C@H](N)[C@H](O)[C@H](C)O1 [DOXORUBICIN] |  | 
 |  | 280 |  | COc1cccc2c1C(=O)c1c(O)c3c(c(O)c1C2=O)C[C@@](O)(C(=O)CO)C[C@@H]3O[C@H]1C[C@H](NC(=O)OCc2ccc(O[C@@H]3O[C@H](C(=O)O)[C@@H](O)[C@H](O)[C@H]3O)c([N+](=O)[O-])c2)[C@H](O)[C@H](C)O1 |  | 
